Data: US8911750B2, “Lung volume reduction therapy using crosslinked biopolymers” (priority 2007, dated 2014)

Tested on: tissue
Assay: Local tissue toxicity of glutaraldehyde by concentration
Format: in vivo
Conditions: below this level limited local toxicity

O=CCCCC=O [glutaraldehyde]
concentration that produces significant tissue necrosis: ≥ 0.75%
